Measured values from patent US20130014428A1, “METHODS OF MONITORING AND CONTROLLING THE WALNUT TWIG BEETLE, PITYOPHTHORUS JUGLANDIS” (The United States of America as Represented by the …, priority 2011, published 2013).

Columns and labels:
[1] = system: walnut twig beetle (WTB), Pityophthorus juglandis; assay: Example 1 Field Test 1: flight response to X and related isomers, yellow sticky card traps; format: in vivo; conditions: Davis CA; for trap catches, female WTB / trap catches, male WTB: about three months in summer, N=21
Method: Field Bioassays of Semiochemicals. […] Contech Enterprises Inc., Delta, British Columbia, Canada) and attached to yellow sticky card traps ([…], OK). In addition, synthesized (+) and (-) enantiomers of trans-conophthorin were tested in 400 μl polyethylene Eppendorf microcentrifuge tubes. Four field studies were conducted (Table 2) that tested the flight responses to: 3-methyl-2-buten-l-ol and related isomers (Field Test 1); 3-methyl-2-buten-l-ol with and without racemic trans-conophthorin (Field Test 2); 3-methyl-2-buten-l-ol with and without the purified enantiomers of trans-conophthorin (Field Test 3); and 3-methyl-2-buten-l-ol with and without racemic chalcogran (Field Test 4). [table] Statistical Analysis. Field Tests 1-4 were each analyzed for treatment effect by using Friedman's non-parametric analysis of variance. (See Zar, J. H. 2010. Biostatistical Analysis, 5th Ed. Pearson Prentice Hall, New Jersey). Males and females were subjected to separate analyses. All treatments within experiments yielding a significant treatment effect were compared by using an a posteriori Nemenyi test (Zar 2010) with experimentwise α=0.05. Sex ratios of responding WTB were determined using Cochran's method for unbiased sampling (See Cochran, W. G. 1977. Sampling Techniques, 3rd ed. John Wiley, New York), with 95% confidence intervals calculated by using the Clopper-Pearson method. (See Zar, J. H. 2010. Biostatistical Analysis, 5th Ed. Pearson Prentice Hall, New Jersey).

WTB [2] = assay: Example 2 Field Test 1: X in combination with X-3 and X-2; format: in vivo, Pityophthorus juglandis; conditions: alone or in combination, at the release rates tested
Method: Field Bioassays of 3-methyl-2-buten-1-ol in combination with other compounds. The flight response of WTB to 3-methyl-2-buten-1-ol in combination with other compounds was also tested. […] Louis, Mo. […] The five treatments were replicated in three spatial blocks and the treatments were re-randomized among the five trap stations in a block each time the traps were emptied (nearly every day). [table] Statistical Analyses. Analysis of treatment effects for the pouch vs. bottle experiment was done by using a sign test. (See Zar, J. H. 2010. Biostatistical Analysis. 5th ed. Pearson Prentice Hall, Englewood Cliffs, N.J.) The other four experiments were analyzed for treatment effect by using Friedman's non-parametric analysis of variance. Id. In all experiments, males and females were analyzed separately. All treatments within experiments yielding a significant treatment effect were compared by using an a posteriori Nemenyi test with experimentwise α=0.05. Id. For all experiments, differences among proportions of female WTB responding to treatments were analyzed by comparing 95% confidence intervals determined with the Clopper-Pearson method. Id.

WTB [3] = assay: Example 2 Field Test 3: X and racemic trans-pityol; format: in vivo, Pityophthorus juglandis
Method: Finally, a flight bioassay of the effect of the compound racemic trans-“pityol” [2-(1-hydroxy-1-methylethyl)-5-methyltetrahydrofuran] was conducted in late summer/early fall at Wolfskill Experimental Orchards. Pityol is a component of the aggregation pheromone of conifer-infesting Pityophthorus species. The response of WTB to racemic trans-pityol (formulated in a polyvinylchloride plastic bubble cap release device, 40 mg load, 0.2 mg/d release rate at 20° C., product #300000272, Contech Enterprises) and pityol in combination with 3-methyl-2-buten-1-ol (release rate 15-80 mg/d, LDPE plastic pouch Contech) was tested (Table 3, Field Test 3). The four treatments were replicated in three spatial blocks and the treatments were re-randomized among the four trap stations in a block each time the traps were emptied (nearly every day).
Statistical Analyses. Analysis of treatment effects for the pouch vs. bottle experiment was done by using a sign test. (See Zar, J. H. 2010. Biostatistical Analysis. 5th ed. Pearson Prentice Hall, Englewood Cliffs, N.J.) The other four experiments were analyzed for treatment effect by using Friedman's non-parametric analysis of variance. Id. In all experiments, males and females were analyzed separately. All treatments within experiments yielding a significant treatment effect were compared by using an a posteriori Nemenyi test with experimentwise α=0.05. Id. For all experiments, differences among proportions of female WTB responding to treatments were analyzed by comparing 95% confidence intervals determined with the Clopper-Pearson method. Id.

[4] = system: walnut twig beetle (WTB), Pityophthorus juglandis; assay: Example 1 Field Test 4: flight response to X with and without racemic chalcogran; format: in vivo
Method: (§1) Field Bioassays of Semiochemicals. To test the attractiveness of the various compounds of interest, some of the commercially available materials listed above were poured into 15 ml capped polyethylene bottles (Product #s A1-1050/002, A1-1055/002; Contech Enterprises Inc., Delta, British Columbia, Canada) and attached to yellow sticky card traps (Trécé, Adair, OK). In addition, synthesized (+) and (−) enantiomers of trans-conophthorin were tested in 400 μl polyethylene Eppendorf microcentrifuge tubes. Four field studies were conducted (Table 2) that tested the flight responses to: 3-methyl-2-buten-l-ol and related isomers (Field Test 1); 3-methyl-2-buten-l-ol with and without racemic trans-conophthorin (Field Test 2); 3-methyl-2-buten-l-ol with and without the purified enantiomers of trans-conophthorin (Field Test 3); and 3-methyl-2-buten-l-ol with and without racemic chalcogran (Field Test 4).
(§2) Statistical Analysis. Field Tests 1-4 were each analyzed for treatment effect by using Friedman's non-parametric analysis of variance. (See Zar, J. H. 2010. Biostatistical Analysis, 5th Ed. Pearson Prentice Hall, New Jersey). Males and females were subjected to separate analyses. All treatments within experiments yielding a significant treatment effect were compared by using an a posteriori Nemenyi test (Zar 2010) with experimentwise α=0.05. Sex ratios of responding WTB were determined using Cochran's method for unbiased sampling (See Cochran, W. G. 1977. Sampling Techniques, 3rd ed. John Wiley, New York), with 95% confidence intervals calculated by using the Clopper-Pearson method. (See Zar, J. H. 2010. Biostatistical Analysis, 5th Ed. Pearson Prentice Hall, New Jersey).

[5] = system: walnut twig beetle (WTB), Pityophthorus juglandis; assay: Example 1 Field Test 3: flight response to X with and without enantiomers of trans-conophthorin; format: in vivo; conditions: enantiomers of Y tested separately
Method: as §1, §2

P. juglandis = assay: GC-EAD (electroantennal detection) of volatile extract; design: species or system Pityophthorus juglandis; conditions: extract of J. hindsii with male and female P. juglandis feeding 45 hr
Method: Gas Chromatography-Electroantennal Detection (GC-EAD). GC-EAD analysis was performed on the extract of walnut (Juglans hindsii) with male and female P. juglandis feeding for 45 hr (pentane extract (7)). The sample was analyzed with an HP5890 GC with the following conditions: DB-5 column 30 m×0.32, oven 50° C. for 1 min, temperature programmed at 20° C./min to a final temperature of 280° C.

[6] = system: walnut twig beetle (WTB), Pityophthorus juglandis; assay: Example 1 Field Test 2: flight response to X with and without racemic conophthorin; format: in vivo; conditions: tested as a racemic mixture
Method: as §1, §2

[7] = 4-unit Lindgren funnel traps, X 15-80 mg/d, pityol 0.2 mg/d, N=93
[8] = yellow sticky card traps, about one month late summer, Davis CA, N=13

CC(C)CCO [X-2, 3-methyl-1-butanol]
proportion of females responding [1]: 0.48
trap catches, female WTB [1]: 21
trap catches, male WTB [1]: 23
effect on flight response to 3-methyl-2-buten-1-ol (WTB [2]): did not significantly affect the flight response of WTB

CC1CCC(C(C)(C)O)O1 (racemic) [pityol, 2-(1-hydroxy-1-methylethyl)-5-methyltetrahydrofuran]
proportion of females responding (WTB [3]; 4-unit Lindgren funnel traps): 0.24
trap catches, female WTB (WTB [3]; [7]): 11
trap catches, male WTB (WTB [3]; [7]): 32
effect on response to 3-methyl-2-buten-1-ol (WTB [3]; at the release rates tested): did not significantly affect the response to 3-methyl-2-buten-1-ol

C=C(C)CCO [X-3, 3-methyl-3-buten-1-ol]
proportion of females responding [1]: 0.33
trap catches, female WTB [1]: 2
trap catches, male WTB [1]: 4
effect on flight response to 3-methyl-2-buten-1-ol (WTB [2]): did not significantly affect the flight response of WTB

CCC1CCC2(CCCO2)O1 (stereo not shown) [Z, 2-ethyl-1,6,-dioxaspiro [4,4]nonane]
effect on flight response ([4]; tested as a racemic mixture): interruptive or repellent
proportion of females responding ([4]; yellow sticky card traps, Davis CA): 0.67
trap catches, female WTB [4, 8]: ½
trap catches, male WTB [4, 8]: ½

CC1CCCC2(CCCO2)O1 (single isomer, unassigned; (-)) [(−)-Y, (−)-trans-conophthorin]
effect on flight response [5]: behaviorally active component

CC1CCCC2(CCCO2)O1 (racemic) [Y, 7-methyl-1,6-dioxaspiro[4,5]decane]
antennal activity by GC-EAD (P. juglandis): antenally active
effect on flight response [6]: interruptive or repellent

CC(C)=CC=O [X-1, 3-methyl-2-butenal]
proportion of females responding [1]: 0.65
trap catches, female WTB [1]: 20
trap catches, male WTB [1]: 11
